Structures are written as SMILES. Where a name gives a salt, the structure may show the parent alone. Read-outs that look alike come from different tables or passages of the source.

Type in all cases: cell-based
One assay concerns S. aureus Clinical (cfr). Put plainly: MIC by broth microdilution (CLSI). The note with it: for MIC: Staphylococcus aureus, 24 h, read-out: MIC S. aureus Clinical (cfr). The method in brief: (§1)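 Testing follows CLSI broth microdilution; P. aeruginosa is run in Chelex 100-pretreated cation-adjusted broth, other organisms in untreated cation-adjusted Mueller-Hinton broth. Final inoculum is 5×10^5 CFU/mL and the top concentration is 64 μg/mL. MICs reflect inhibition of visible growth at 24 h.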

Assay [1] deals with E. faecalis ATCC 29212 (HAV#005). Put plainly: MIC by broth microdilution (CLSI). The note with it: for MIC: Enterococcus faecalis, ATCC29212, 24 h, read-out: MIC E. faecalis ATCC 29212. The method in brief: as §1
In another assay the test system is S. aureus MMX 3035. Put plainly: MIC by broth microdilution (CLSI). The note with it: for MIC: Staphylococcus aureus, MMX3035, 24 h, read-out: MIC S. aureus MMX 3035. In a few lines:
as §1
In general terms: Broth dilution looks for growth in wells or tubes with falling amounts of substance.

Assay [2] deals with E. coli ATCC 25922 (HAV#006). Put plainly: MIC by broth microdilution (CLSI). The note with it: for MIC: Escherichia coli, ATCC25922, 24 h, read-out: MIC E. coli ATCC 25922. In a few lines:
as §1

A further assay relates to E. coli ΔtolC. Put plainly: MIC by broth microdilution (CLSI). The note with it: CaMHB, 24 h incubation; for MIC: Escherichia coli, 24 h, read-out: MIC E. coli ΔtolC, ΔtolC. The method in brief:
as §1

The subject of the next assay is E. coli lptD mutant. Put plainly: MIC by broth microdilution (CLSI). The note with it: CaMHB, 24 h incubation; for MIC E. coli lptD mutant: lptD mutant / ΔlptD mutant, formate salt. The method in brief:
as §1

Assay [3] deals with S. aureus ATCC 29213 (HAV#001). Put plainly: MIC by broth microdilution (CLSI). The note with it: for MIC: Staphylococcus aureus, ATCC29213, 24 h, read-out: MIC S. aureus ATCC 29213. In a few lines:
as §1

The subject of another assay is K. pneumoniae JMI-991193. Put plainly: MIC by broth microdilution (CLSI). The note with it: for MIC: Klebsiella pneumoniae, JMI991193, 24 h, read-out: MIC K. pneumoniae JMI-991193. In a few lines: as §1
For the next assay, the system named is E. coli Clinical (armA). Put plainly: MIC by broth microdilution (CLSI). The note with it: for MIC: Escherichia coli, 24 h, read-out: MIC E. coli Clinical (armA). In a few lines:
as §1

Assay [4] has as its system P. aeruginosa ATCC 27853 (HAV#009). Put plainly: MIC by broth microdilution (CLSI), Chelex 100-treated broth. The note with it: HAV#009, ATCC 27853, CaMHB pre-treated with Chelex 100 ion exchange resin, 24 h. Here is the method:
Minimum inhibitory concentrations (MICs) were determined by the broth microdilution method following the Clinical and Laboratory Standards Institute (CLSI) guidelines. Test organisms consisted of standard reference strains from the American Type Culture Collection (ATCC; Manassa, VA, USA) and clinical isolates obtained from JMI Laboratories Inc. (North Liberty, IA, USA), Micromyx repository (MMX; Kalamazoo, MI, USA), and Massachusetts Eye and Ear Hospital (Boston, USA). Before the start of the MIC experiment, standard and test compound stock solutions were prepared in dimethyl sulfoxide (DMSO, Aldrich D2650) at a stock concentration of 2,560 μg/mL. The compound concentration range typically employed for each experiment was 64-0.06 μg/mL (2.5% final DMSO concentration). Iboxamycin was used as a comparator in all experiments. All bacterial strains were sub-cultured on blood agar plates (tryptic soy agar with 5% sheep blood, Hardy Diagnostics) and incubated overnight at 35° C. Organisms were suspended in cation-adjusted Mueller-Hinton broth (CaMHB, BD 212322) and optical density was adjusted to 0.5 McFarland standard. Suspensions were further diluted to obtain a final inoculum of 5×10^5 CFU/mL for broth microdilution experiments. The minimum concentration of compound required to inhibit visible bacterial growth after 24 h of incubation was recorded as the MIC in μg/mL. MICs for P. aeruginosa were recorded in cation-adjusted Mueller-Hinton broth which had been pre-treated with Chelex 100 ion exchange resin according to procedures reported in Ito et al. Antimicrob Agents Chemother (2016) 60 (12), 7396-7401.

For assay [5], the system named is K. oxytoca HAV#450; Clinical. Put plainly: MIC by broth microdilution (CLSI). The note with it: Klebsiella oxytoca, CaMHB, 24 h incubation, read-out: MIC K. oxytoca HAV#450. In a few lines:
as §1

The subject of a further assay is S. aureus HAV#016, MRSA. Put plainly: MIC by broth microdilution (CLSI). The note with it: Staphylococcus aureus, CaMHB, 24 h incubation. The method in brief: as §1
For assay [6], the system named is E. faecium HAV#318, VRE; clinical. Put plainly: MIC by broth microdilution (CLSI). The note with it: Enterococcus faecium, CaMHB, 24 h incubation, read-out: MIC E. faecium HAV#318, VRE. In a few lines:
as §1

The test system of assay [7] is S. aureus HAV#202, ATCC 700699. Put plainly: MIC by broth microdilution (CLSI). The note with it: Staphylococcus aureus, ATCC700699, CaMHB, 24 h incubation. The method in brief:
as §1

A further assay relates to E. coli HAV#040, LptD. Put plainly: MIC by broth microdilution (CLSI). The note with it: Escherichia coli, 24 h, read-out: MIC E. coli HAV#040, LptD. In a few lines:
as §1

Assay [8] has as its system S. pyogenes HAV#004, ATCC 19615. Put plainly: MIC by broth microdilution (CLSI). The note with it: Streptococcus pyogenes, ATCC19615, CaMHB, 24 h incubation. The method in brief:
as §1

Assay [9] relates to S. pneumoniae HAV#003, ATCC 49619. Put plainly: MIC by broth microdilution (CLSI). The note with it: Streptococcus pneumoniae, ATCC49619, CaMHB, 24 h incubation. In a few lines:
as §1

For another assay, the system named is E. coli HAV#038, ΔTolC. Put plainly: MIC by broth microdilution (CLSI). The note with it: Escherichia coli, 24 h, read-out: MIC E. coli HAV#038, ΔTolC. The method in brief: as §1
The test system of a further assay is H. influenzae ATCC 49247. Put plainly: MIC by broth microdilution (CLSI). The note with it: Haemophilus influenzae, ATCC49247, 24 h, read-out: MIC H. influenzae ATCC 49247. The method in brief:
as §1

The subject of another assay is S. pneumoniae c-ermB. Put plainly: MIC by broth microdilution (CLSI). The note with it: Streptococcus pneumoniae, 24 h, read-out: MIC S. pneumoniae c-ermB. In a few lines: as §1
In another assay the test system is E. faecium JMI-990536. Put plainly: MIC by broth microdilution (CLSI). The note with it: Enterococcus faecium, JMI990536, 24 h, read-out: MIC E. faecium JMI-990536. The method in brief: as §1
Assay [10] deals with A. baumannii ATCC 19606 (HAV#010). Put plainly: MIC by broth microdilution (CLSI). The note with it: Acinetobacter baumannii, ATCC19606, 24 h, read-out: MIC A. baumannii ATCC 19606. In a few lines:
as §1

[11] abbreviates: Clinical (cfr), CaMHB, 24 h incubation.
Setting [12] is: MMX 3035, CaMHB, 24 h incubation.
The mark [13] stands for this setting: HAV#001, ATCC 29213, CaMHB, 24 h incubation.
[14] abbreviates: JMI-991193, CaMHB, 24 h incubation.
The mark [15] stands for this setting: HAV#006, ATCC 25922, CaMHB, 24 h incubation.

Turning to `CC(C)C[C@@H]1CCO[C@@H]2[C@H](CN[C@@H]2C(=O)N[C@@H]2C/C=C/C(CN3CCOCC3)CSC3OC2C(O)C(O)C3O)C1` (single isomer, unassigned) [FSA1608056, formate salt], the “MIC S. aureus Clinical (cfr)” value against S. aureus Clinical (cfr) (setting [11]) is greater than 64 µg/mL. Besides, the “MIC E. faecalis ATCC 29212” value in assay [1] (HAV#005, ATCC 29212, CaMHB, 24 h incubation, formate salt) came out at 4 µg/mL. Moreover, in the assay on S. aureus MMX 3035 (setting [12]), the “MIC S. aureus MMX 3035” value was greater than 64 µg/mL. The “MIC E. coli ATCC 25922” value in [2] (HAV#006, ATCC 25922, CaMHB, 24 h incubation, formate salt) is 64 µg/mL. The “MIC E. coli ΔtolC” value with E. coli ΔtolC (ΔtolC) stood at 16 µg/mL. The “MIC E. coli lptD mutant” value in the assay with E. coli lptD mutant was found to be 4 µg/mL. Also, in assay [3] (setting [13]), the “MIC S. aureus ATCC 29213” value was determined as 4 µg/mL. Moreover, the “MIC K. pneumoniae JMI-991193” value in the assay with K. pneumoniae JMI-991193 (setting [14]) was greater than 64 µg/mL. The “MIC E. coli Clinical (armA)” value in the assay with E. coli Clinical (armA) (Clinical (armA), CaMHB, 24 h incubation, formate salt) was found to be 64 µg/mL. For the same compound, the “MIC P. aeruginosa ATCC 27853” value in assay [4] stood at 32 µg/mL.
As for `CC(C)C[C@@H]1CCO[C@@H]2[C@H](CN[C@@H]2C(=O)N[C@@H]2C/C=C/C(CN3CCOCC3)CSC3OC2C(O)C(O)C3O)C1` (single isomer, unassigned) [FSA1608057, formate salt], the MIC with S. aureus Clinical (cfr) (setting [11]) was greater than 64 µg/mL; in [1] (HAV#005, ATCC 29212, CaMHB, 24 h incubation), 2 µg/mL; in the assay on S. aureus MMX 3035 (setting [12]) it was greater than 64 µg/mL; in assay [2] (setting [15]), greater than 64 µg/mL; in the assay with E. coli ΔtolC, 16 µg/mL; in assay [3] (setting [13]), 4 µg/mL. The MIC is greater than 64 µg/mL in the assay with K. pneumoniae JMI-991193 (setting [14]); greater than 64 µg/mL in the assay on E. coli Clinical (armA) (Clinical (armA), CaMHB, 24 h incubation); 32 µg/mL in assay [4] (Pseudomonas aeruginosa, ATCC27853). Besides, the “MIC E. coli lptD mutant” value with E. coli lptD mutant came to 32 µg/mL.
`CC(C)C[C@@H]1CCO[C@@H]2[C@H](CN[C@@H]2C(=O)N[C@@H]2CC/C=C/CS[C@H]3O[C@H]2[C@H](O)[C@H](O)[C@H]3O)C1` [FSA1503054, (4S,5aS,8S,8aR)-4-isobutyl-N-((1R,8R,9R,10R,11S,12R,E)-10,11,12-trihydroxy-13-oxa-2-thiabicyclo[7.3.1]tridec-4-en-8-yl) octahydro-2H-oxepino[2,3-c]pyrrole-8-carboxamide formate salt]: the MIC in assay [5] worked out at 32 µg/mL; with S. aureus HAV#016, MRSA, 0.125 µg/mL; in assay [6] it was 16 µg/mL; in assay [2] (setting [15]), 16 µg/mL; in assay [7], 8 µg/mL; in the assay on E. coli HAV#040, LptD it was 4 µg/mL. The MIC is no more than 0.03 µg/mL in assay [8]; no more than 0.03 µg/mL in [9]; 0.125 µg/mL in assay [3] (setting [13]); 1 µg/mL with E. coli HAV#038, ΔTolC.
In the case of `CC(C)C[C@@H]1CCO[C@@H]2[C@H](CN[C@@H]2C(=O)N[C@@H]2CC/C=C\CSC3OC2C(O)C(O)C3O)C1` (stereo partly drawn) [FSA1503055, (4S,5aS,8S,8aR)-4-isobutyl-N-((1R,8R,9R,10R,11S,12R,Z)-10,11,12-trihydroxy-13-oxa-2-thiabicyclo[7.3.1]tridec-4-en-8-yl) octahydro-2H-oxepino[2,3-c]pyrrole-8-carboxamide formate salt], the MIC in assay [5] was greater than 64 µg/mL; in the assay with S. aureus HAV#016, MRSA, 0.5 µg/mL; in [6], 4 µg/mL; in [2] (setting [15]), greater than 64 µg/mL; in assay [7], 32 µg/mL; in the assay with E. coli HAV#040, LptD it was 64 µg/mL. Further, the MIC stood at 0.125 µg/mL in assay [8]; 0.25 µg/mL in [9]; 0.5 µg/mL in assay [3] (setting [13]); 16 µg/mL with E. coli HAV#038, ΔTolC.
With `CC(C)C[C@@H]1CCO[C@@H]2[C@H](CN[C@@H]2C(=O)N[C@H]2[C@H]3O[C@H](SC[C@H](F)C/C=C\[C@H]2C)[C@H](O)[C@@H](O)[C@H]3O)C1` [FSA1609033, (4S,5aS,8S,8aR)—N-((1R,4R,8R,9R,10R,11R,12S,13R,Z)-4-fluoro-11,12,13-trihydroxy-8-methyl-14-oxa-2-thiabicyclo[8.3.1]tetradec-6-en-9-yl)-4-isobutyloctahydro-2H-oxepino[2,3-c]pyrrole-8-carboxamide formate salt], the MIC in the assay on S. aureus Clinical (cfr) was 0.25 µg/mL; in the assay on H. influenzae ATCC 49247 it was no more than 0.06 µg/mL; in assay [1] it was no more than 0.06 µg/mL; with S. aureus MMX 3035, 0.25 µg/mL; in the assay on S. pneumoniae c-ermB, no more than 0.03 µg/mL; in the assay with E. faecium JMI-990536, no more than 0.06 µg/mL. The MIC in assay [2] was 1 µg/mL; in the assay on E. coli ΔtolC, no more than 0.06 µg/mL; in the assay on E. coli lptD mutant (Escherichia coli, 24 h, read-out: MIC E. coli lptD mutant, lptD mutant / ΔlptD mutant), 0.125 µg/mL; in [10], 1 µg/mL; in assay [3] it was no more than 0.06 µg/mL; with K. pneumoniae JMI-991193, 2 µg/mL. The MIC in the assay with E. coli Clinical (armA) was 4 µg/mL.

The record behind these values is patent US20250270246A1, “LINCOSAMIDES AND USES THEREOF” (President and Fellows of Harvard College, priority 2022, published 2025).
